# From patent US11291719B2, “Methods and compositions for modulating Akt3” (Augusta University Research Institute, Inc., priority 2016, dated 2022)
# Test system: human iTregs
# Experiment: Induction and viability of human iTregs
# Format: cell-based
# Source text: FIG. 11A is a bar graph showing the percent of live human iTregs in cells treated with various concentrations of mJJ64A. The X-axis represents treatment group and the Y-axis represents percent of live cells. FIG. 11B is a bar graph showing the percent of FoxP3^+CD4^+ cells in human iTregs treated with various concentrations of mJJ64A. The X-axis represents treatment group and the Y-axis represents percent of FoxP3^+CD4^+ cells. FIG. 11C is a bar graph showing the percent of TGFβ^+ expressing cells in human iTregs treated with various concentrations of mJJ64A. The X-axis represents treatment group and the Y-axis represents percent of TGFβ^+ expressing cells.
smiles,measurement,setting,value
N#Cc1ccc2nccc(Nc3ccc(C(=O)Nc4ccc(Nc5ccncc5)cc4)cc3)c2c1 [Compound 2],induction of human iTregs,percent FoxP3+CD4+ and TGFβ+ cells,induced
same,cell viability of human iTregs,percent of live cells,did not affect
